# Measured values taken from publication PMC8847575, “HSL1 and BAM1/2 impact epidermal cell development by sensing distinct signaling peptides” (Nature Communications, 2022).
# Square brackets hold non-standard residues; d marks the D form. Peptide text beside a SMILES is read from it. Hyp = O=C(O)[C@@H]1C[C@@H](O)CN1
# Tests used:
# [1] = target: HSL1 (HAESA-LIKE 1) ectodomain (Arabidopsis) (UniProt Q9SGP2); assay: ITC; peptide (75 to 600 µM) injected into 10 to 30 µM HSL1 or BAM1 ectodomain in the cell; 25 °C; 20 mM sodium citrate pH 5.0, 150 mM NaCl; N fitted to 1
# BAM1 LRR ectodomain = target: T1, BAM1 LRR ectodomain (Arabidopsis thaliana, UniProt O49545); assay: ITC, peptide titrated into BAM1 ectodomain; assay type: binding
# T1 construct: BAM1 (residues 20–637, AT5G65700); azurocidin or Drosophila BIP signal peptide (secretion signal) (N); made in house; host or cells: Trichoplusia ni Tnao38 insect cells (baculovirus)
# T1 sequence (O49545 20-637): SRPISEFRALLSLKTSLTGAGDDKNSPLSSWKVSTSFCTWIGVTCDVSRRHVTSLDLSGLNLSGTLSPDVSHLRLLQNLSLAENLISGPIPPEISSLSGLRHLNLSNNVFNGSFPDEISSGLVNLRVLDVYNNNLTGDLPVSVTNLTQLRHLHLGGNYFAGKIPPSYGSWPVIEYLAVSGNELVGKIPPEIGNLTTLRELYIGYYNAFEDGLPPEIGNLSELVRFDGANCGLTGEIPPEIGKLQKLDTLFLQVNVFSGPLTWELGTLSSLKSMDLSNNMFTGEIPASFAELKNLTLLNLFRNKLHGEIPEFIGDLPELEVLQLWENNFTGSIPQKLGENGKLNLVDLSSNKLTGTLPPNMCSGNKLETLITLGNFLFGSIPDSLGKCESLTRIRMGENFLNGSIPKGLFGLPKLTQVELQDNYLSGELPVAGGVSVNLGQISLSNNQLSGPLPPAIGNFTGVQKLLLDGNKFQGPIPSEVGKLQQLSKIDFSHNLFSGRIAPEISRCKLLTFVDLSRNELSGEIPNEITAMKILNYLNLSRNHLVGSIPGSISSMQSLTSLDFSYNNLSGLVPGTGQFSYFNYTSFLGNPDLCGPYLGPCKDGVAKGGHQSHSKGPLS
# Description: All genes used for protein expression in Trichoplusia ni Tnao38 cells[46] were codon optimized and cloned into a modified pFastBac vector (Geneva Biotech) providing an azurocidin[47] or Drosophila BIP signal peptide, a TEV (tobacco etch virus protease) cleavage site and a Strep-9xHis tandem affinity tag at their carboxy terminus. The genes used are coding for the Arabidopsis ectodomains of HSL1 (residues 17-618, AT1G28440), HAE (residues 20-620, AT4G28490) SERK1 (residues 24–213, AT1G71830), and BAM1 (residues 20–637, AT5G65700). To perform Grating-coupled interferometry (GCI) experiments, HSL1 was fused to a non-cleavable Avi-tag[49],[50]. Baculovirus generation was carried out in DH10 cells and virus amplification was done in Spodoptera frugiperda Sf9 cells. For protein expression, Trichoplusia ni Tnao38 cells were infected with HAE, HSL1, BAM1 and SERK1 virus with a multiplicity of infection (MOI) of 3. The cells were grown 1 day at 28 °C and two days at 22 °C at 110 rpm. After every expression round, secretion of our proteins was detected using an anti-His-HRP conjugated antibody from Roche (Ref:11965085001) in a 1:2000 dilution. […] Next, affinity tags were removed by incubating the purified proteins with recombinant His-tagged TEV protease, in a 1:50 ratio. The cleaved tag and the protease were separated from the ectodomains by a second Ni^2+ affinity step. Proteins were further purified by size-exclusion chromatography on a Superdex 200 Increase 10/300 GL column (GE Healthcare) equilibrated in 20 mM citric acid pH 5.0, 150 mM NaCl. Peak fractions containing the single proteins or complexes were concentrated using Amicon Ultra concentrators (Millipore, MWCO 10,000 for SERK1 and 30,000 for HAE, HSL1, and BAM1) and used for crystallization or biochemical experiments. Proteins were analyzed for purity and structural integrity by SDS-PAGE.
# Experiments were performed at 25 °C using a MicroCal PEAQ-ITC (Malvern Instruments) with a 200 µL standard cell and a 40 μL titration syringe. HSL1, BAM1, and SERK1 proteins were gel-filtrated into the ITC buffer (20 mM sodium citrate pH 5.0, 150 mM NaCl). Molar protein concentrations for HSL1, BAM1, and SERK1 were calculated using their molar extinction coefficient and a molecular weight of 74,896 and 27,551 Da, respectively as previously determined. A typical experiment consisted of injecting 2 μL of a range between 75 and 600 μM solution of ligand into 10 to 30 μM HAE, HSL1, or BAM1 solution in the cell at 150 s intervals and 500 rpm stirring speed. The SERK1 vs HAE/HSL1-peptide experiments were performed by titrating 100 µM SERK1 in the cell, using the same injection pattern. ITC data were corrected for the heat of dilution by subtracting the mixing enthalpies for titrant solution injections into protein-free ITC buffer. Experiments were done in duplicates or triplicates, otherwise specified, and data were analyzed using the MicroCal PEAQ-ITC Analysis Software provided by the manufacturer. […] The N values were fitted to 1 in the analysis.
# HSL1 ectodomain [2] = target: T2, HSL1 ectodomain (Arabidopsis thaliana, UniProt Q9SGP2); assay: GCI binding kinetics, peptide vs immobilised HSL1; conditions: HSL1 on surface, peptide as analyte, 25 °C, pH 5, one-to-one binding model, read-out: ka association rate constant, peptide vs HSL1 (GCI)
# T2 construct: HSL1 (residues 17-618, AT1G28440); azurocidin or Drosophila BIP signal peptide (secretion signal) (N); made in house; host or cells: Trichoplusia ni Tnao38 insect cells (baculovirus)
# T2 sequence (Q9SGP2 17-618): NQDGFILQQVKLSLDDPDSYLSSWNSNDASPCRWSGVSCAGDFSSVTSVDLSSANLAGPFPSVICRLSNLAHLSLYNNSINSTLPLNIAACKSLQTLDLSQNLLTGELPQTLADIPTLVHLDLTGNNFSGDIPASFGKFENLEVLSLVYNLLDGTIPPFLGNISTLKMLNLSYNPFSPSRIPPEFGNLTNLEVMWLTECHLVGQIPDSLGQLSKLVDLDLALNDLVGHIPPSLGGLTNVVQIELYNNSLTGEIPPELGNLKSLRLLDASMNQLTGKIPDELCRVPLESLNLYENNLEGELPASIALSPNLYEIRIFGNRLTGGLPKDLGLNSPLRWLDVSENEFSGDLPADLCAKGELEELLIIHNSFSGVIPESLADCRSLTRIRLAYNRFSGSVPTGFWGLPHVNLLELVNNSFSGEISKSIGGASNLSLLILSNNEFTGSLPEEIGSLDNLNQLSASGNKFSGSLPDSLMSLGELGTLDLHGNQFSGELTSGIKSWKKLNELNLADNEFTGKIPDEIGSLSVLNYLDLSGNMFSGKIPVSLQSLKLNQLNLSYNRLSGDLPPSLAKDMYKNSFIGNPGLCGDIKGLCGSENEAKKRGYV
# Experimental: 25 μM of HSL1 were biotinylated with the biotin ligase BirA[60] (2 μM) for 1 h at 30 °C, in a volume of 200 μl. The buffer used in the reaction was: 25 mM Tris pH 8, 150 mM NaCl, 5 mM MgCl2, 2 mM 2-Mercaptoethanol, 0.15 mM Biotin, 2 mM ATP. Biotinylated proteins were purified by size-exclusion chromatography in 20 mM citric acid pH5, 150 mM NaCl and subsequently used in GCI experiments.
# GCI experiments were performed with the Creoptix WAVE system (Creoptix AG, Switzerland) using 4PCP WAVE chips (thin quasiplanar polycarboxylate surface; Creoptix, Switzerland). Chips were first conditioned with borate buffer (100 mM sodium borate pH 9.0, 1 M NaCl; Xantec, Germany). Chips were activated with 1:1 mix of 400 mM N-(3-dimethylaminopropyl)-N′-ethylcarbodiimide hydrochloride and 100 mM N-hydroxysuccinimide (Xantec, Germany). Streptavidin (50 µg/ml; Sigma, Germany) in 10 mM sodium acetate pH 5.0 (Sigma, Germany) was immobilized on the chip surface until saturation was reached, followed by passivation of the surface with BSA (50 µg/ml; Sigma, Germany) in 10 mM sodium acetate pH5.0, and a final quenching step with 1 M ethanolamine pH 8.0 (Xantec, Germany). Then, biotinylated HSL1 (ligand) (80–100 μg/ml) was captured on the streptavidin surface until the desired density was reached. Normal kinetic analysis were performed to measure the binding of IDL peptides (analyte) to HSL1. Experiments were performed at 25 °C with a 1:2 dilution series from a maximum concentration of 5–50 μM peptide, in 20 mM citrate pH 5, 250 mM NaCl, 0.005% Tween-20 v/v. To analyze the interaction kinetics of the co-receptor SERK1, 2 µM of the protein was used as a higher dilution with running buffer containing 5 µM of the IDL peptides being tested. Blank injections were used for double referencing and a dimethylsulfoxide (DMSO) calibration curve for bulk correction. Analysis and correction of the obtained data were performed using the Creoptix WAVE control software (correction applied: X and Y offset; DMSO calibration; double referencing). One-to-one binding model was used for both experiments.
# HSL1 ectodomain [3] = target: T2, HSL1 ectodomain; assay: ITC, peptide titrated into isolated HSL1 ectodomain; conditions: peptide (syringe) into HSL1 ectodomain (cell), 25 °C, 20 mM sodium citrate pH 5.0, 150 mM NaCl, N fitted to 1, mean ± SD of at least two independent experiments, n.d = no binding detected
# Description: All genes used for protein expression in Trichoplusia ni Tnao38 cells[46] were codon optimized and cloned into a modified pFastBac vector (Geneva Biotech) providing an azurocidin[47] or Drosophila BIP signal peptide, a TEV (tobacco etch virus protease) cleavage site and a Strep-9xHis tandem affinity tag at their carboxy terminus. The genes used are coding for the Arabidopsis ectodomains of HSL1 (residues 17-618, AT1G28440), HAE (residues 20-620, AT4G28490) SERK1 (residues 24–213, AT1G71830), and BAM1 (residues 20–637, AT5G65700). To perform Grating-coupled interferometry (GCI) experiments, HSL1 was fused to a non-cleavable Avi-tag[49],[50]. […] After every expression round, secretion of our proteins was detected using an anti-His-HRP conjugated antibody from Roche (Ref:11965085001) in a 1:2000 dilution. […] Proteins were analyzed for purity and structural integrity by SDS-PAGE.
# Experiments were performed at 25 °C using a MicroCal PEAQ-ITC (Malvern Instruments) with a 200 µL standard cell and a 40 μL titration syringe. […] Molar protein concentrations for HSL1, BAM1, and SERK1 were calculated using their molar extinction coefficient and a molecular weight of 74,896 and 27,551 Da, respectively as previously determined. […] Experiments were done in duplicates or triplicates, otherwise specified, and data were analyzed using the MicroCal PEAQ-ITC Analysis Software provided by the manufacturer. […]
compound,measurement,setting,value
IDA^K66AR67AH68A peptide (from UniProt Q8LAD7 58-69),fold reduction of binding affinity against wild-type IDA,[1],15 fold
"CC[C@H](C)[C@H](NC(=O)[C@@H]1CCCN1)C(=O)N1CCC[C@H]1C(=O)N1CCC[C@H]1C(=O)N[C@@H](CO)C(=O)N[C@@H](C)C(=O)N1C[C@H](O)C[C@H]1C(=O)N[C@@H](CO)C(=O)N[C@@H](CCCCN)C(=O)N[C@@H](CCCNC(=N)N)C(=O)N[C@@H](Cc1c[nH]cn1)C(=O)N[C@@H](CC(N)=O)C(=O)O [IDA, INFLORESCENCE DEFICIENT IN ABSCISSION] (H-PIPPSA[Hyp]SKRHN-OH)","Kd (dissociation constant), peptide vs BAM1","BAM1 LRR ectodomain; ITC, peptide into BAM1 ectodomain (cell), 25 °C, 20 mM sodium citrate pH 5.0, 150 mM NaCl, N fitted to 1, mean ± SD of at least two independent experiments, n.d = no binding detected",did not detect interaction
same,kon,HSL1 ectodomain [2],225000 M⁻¹ s⁻¹
CC(C)C[C@H](NC(=O)[C@@H](N)CCCNC(=N)N)C(=O)N[C@H](C(=O)N1C[C@H](O)C[C@H]1C(=O)N[C@@H](CO)C(=O)NCC(=O)N1C[C@H](O)C[C@H]1C(=O)N[C@@H](CC(N)=O)C(=O)N1CCC[C@H]1C(=O)N[C@@H](CC(C)C)C(=O)N[C@@H](Cc1c[nH]cn1)C(=O)N[C@@H](CC(N)=O)C(=O)O)C(C)C [CLE9] (H-RLV[Hyp]SG[Hyp]NPLHN-OH),Kd,BAM1 LRR ectodomain,94 ± 56 nM
same,"Kd (dissociation constant), peptide vs HSL1",HSL1 ectodomain [3],did not detect binding
"CC(C)[C@H](NC(=O)[C@@H]1CCCN1)C(=O)N1CCC[C@H]1C(=O)N[C@H](C(=O)N[C@@H](CO)C(=O)NCC(=O)N1C[C@H](O)C[C@H]1C(=O)N[C@@H](CO)C(=O)N[C@@H](CCCNC(=N)N)C(=O)N[C@@H](CCCCN)C(=O)N[C@@H](Cc1c[nH]cn1)C(=O)N[C@@H](CC(N)=O)C(=O)O)[C@@H](C)O [IDL3, IDA-LIKE] (H-PVPTSG[Hyp]SRKHN-OH)",kon,HSL1 ectodomain [2],700000 M⁻¹ s⁻¹
